From ChEMBL document CHEMBL1944561, “Discovery and SAR exploration of a novel series of imidazo[4,5-b]pyrazin-2-ones as potent and selective mTOR kinase inhibitors” (Bioorg Med Chem Lett, 2011)

Key:
[1] = molecular target: Mitogen-activated protein kinase 14 (Homo sapiens) (UniProt Q16539); assay: Inhibition of p38alpha assessed as activity remaining at 10 uM
[2] = molecular target: T1, Interleukin-1 receptor-associated kinase 4 (Homo sapiens) (UniProt Q9NWZ3); assay: Inhibition of IRAK4 assessed as activity remaining at 10 uM
T1 sequence (whole entry): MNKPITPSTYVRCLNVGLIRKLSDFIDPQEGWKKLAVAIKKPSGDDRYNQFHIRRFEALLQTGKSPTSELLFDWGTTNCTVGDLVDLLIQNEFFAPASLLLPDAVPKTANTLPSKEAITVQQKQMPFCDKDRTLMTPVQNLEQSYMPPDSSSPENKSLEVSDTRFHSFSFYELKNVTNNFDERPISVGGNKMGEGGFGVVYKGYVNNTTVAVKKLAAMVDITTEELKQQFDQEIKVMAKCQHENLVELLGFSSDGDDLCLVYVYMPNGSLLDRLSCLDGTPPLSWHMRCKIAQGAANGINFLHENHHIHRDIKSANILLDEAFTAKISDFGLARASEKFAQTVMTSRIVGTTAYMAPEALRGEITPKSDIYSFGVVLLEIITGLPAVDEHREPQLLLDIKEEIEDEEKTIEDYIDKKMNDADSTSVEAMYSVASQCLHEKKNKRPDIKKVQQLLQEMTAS

[3] = molecular target: Glycogen synthase kinase-3 alpha (Homo sapiens, UniProt P49840); assay: Inhibition of GSK3alpha assessed as activity remaining at 10 uM
Glycogen synthase kinase-3 alpha, sequence (P49840 2-483 limits assumed): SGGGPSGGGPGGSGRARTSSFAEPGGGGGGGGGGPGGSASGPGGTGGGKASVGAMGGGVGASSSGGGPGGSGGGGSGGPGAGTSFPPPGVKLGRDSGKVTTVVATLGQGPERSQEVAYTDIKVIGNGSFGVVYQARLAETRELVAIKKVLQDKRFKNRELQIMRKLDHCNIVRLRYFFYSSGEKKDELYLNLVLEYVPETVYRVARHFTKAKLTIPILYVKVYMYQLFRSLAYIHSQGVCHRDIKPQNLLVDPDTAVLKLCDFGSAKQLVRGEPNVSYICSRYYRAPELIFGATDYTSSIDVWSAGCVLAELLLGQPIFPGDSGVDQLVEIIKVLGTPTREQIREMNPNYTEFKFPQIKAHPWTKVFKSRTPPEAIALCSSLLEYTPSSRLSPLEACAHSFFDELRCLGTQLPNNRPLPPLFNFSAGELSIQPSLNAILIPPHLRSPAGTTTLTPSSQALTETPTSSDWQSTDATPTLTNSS

[4] = molecular target: Insulin-like growth factor 1 receptor (Homo sapiens) (UniProt P08069); assay: Inhibition of IGF1R assessed as activity remaining at 10 uM
Insulin-like growth factor 1 receptor (Homo sapiens), sequence (P08069 31-736 limits assumed): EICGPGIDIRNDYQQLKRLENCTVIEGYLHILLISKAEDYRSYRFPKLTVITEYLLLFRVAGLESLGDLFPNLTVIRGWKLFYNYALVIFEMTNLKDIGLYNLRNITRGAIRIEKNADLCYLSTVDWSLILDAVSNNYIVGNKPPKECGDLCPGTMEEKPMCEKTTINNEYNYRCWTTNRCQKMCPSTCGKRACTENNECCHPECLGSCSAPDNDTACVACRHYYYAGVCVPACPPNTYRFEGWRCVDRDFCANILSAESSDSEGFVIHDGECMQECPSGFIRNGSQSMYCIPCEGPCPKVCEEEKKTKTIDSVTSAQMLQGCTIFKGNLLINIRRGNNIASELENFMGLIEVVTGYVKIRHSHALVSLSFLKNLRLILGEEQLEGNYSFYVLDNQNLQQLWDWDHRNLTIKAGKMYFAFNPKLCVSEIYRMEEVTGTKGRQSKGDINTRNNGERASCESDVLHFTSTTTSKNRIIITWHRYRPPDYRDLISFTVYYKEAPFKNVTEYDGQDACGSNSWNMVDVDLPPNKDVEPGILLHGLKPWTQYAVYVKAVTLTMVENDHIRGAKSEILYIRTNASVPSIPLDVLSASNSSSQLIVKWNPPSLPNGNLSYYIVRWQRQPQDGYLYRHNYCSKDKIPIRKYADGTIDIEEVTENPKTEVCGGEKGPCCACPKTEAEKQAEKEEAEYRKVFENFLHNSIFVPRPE
Insulin-like growth factor 1 receptor (Homo sapiens), sequence (P08069 741-1367 limits assumed): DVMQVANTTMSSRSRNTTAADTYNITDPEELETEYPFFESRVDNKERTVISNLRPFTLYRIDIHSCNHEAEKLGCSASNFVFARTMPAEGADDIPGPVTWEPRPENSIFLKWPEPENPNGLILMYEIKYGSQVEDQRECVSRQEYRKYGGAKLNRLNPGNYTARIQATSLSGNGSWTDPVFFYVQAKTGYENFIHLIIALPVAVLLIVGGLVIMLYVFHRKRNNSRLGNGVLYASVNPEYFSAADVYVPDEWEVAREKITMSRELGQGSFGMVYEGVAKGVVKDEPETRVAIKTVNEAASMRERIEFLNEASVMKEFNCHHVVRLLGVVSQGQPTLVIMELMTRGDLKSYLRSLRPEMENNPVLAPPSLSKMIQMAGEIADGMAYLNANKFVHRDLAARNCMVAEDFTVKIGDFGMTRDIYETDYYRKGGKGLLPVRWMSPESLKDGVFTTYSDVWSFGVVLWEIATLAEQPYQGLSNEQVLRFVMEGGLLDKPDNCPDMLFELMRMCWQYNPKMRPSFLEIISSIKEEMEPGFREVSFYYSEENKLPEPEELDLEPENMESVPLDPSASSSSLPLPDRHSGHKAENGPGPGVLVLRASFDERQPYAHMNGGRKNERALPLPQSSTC

[5] = molecular target: Misshapen-like kinase 1 (Homo sapiens) (UniProt Q8N4C8); assay: Inhibition of MINK assessed as activity remaining at 10 uM
Misshapen-like kinase 1 (Homo sapiens), sequence (Q8N4C8 whole entry, looked up): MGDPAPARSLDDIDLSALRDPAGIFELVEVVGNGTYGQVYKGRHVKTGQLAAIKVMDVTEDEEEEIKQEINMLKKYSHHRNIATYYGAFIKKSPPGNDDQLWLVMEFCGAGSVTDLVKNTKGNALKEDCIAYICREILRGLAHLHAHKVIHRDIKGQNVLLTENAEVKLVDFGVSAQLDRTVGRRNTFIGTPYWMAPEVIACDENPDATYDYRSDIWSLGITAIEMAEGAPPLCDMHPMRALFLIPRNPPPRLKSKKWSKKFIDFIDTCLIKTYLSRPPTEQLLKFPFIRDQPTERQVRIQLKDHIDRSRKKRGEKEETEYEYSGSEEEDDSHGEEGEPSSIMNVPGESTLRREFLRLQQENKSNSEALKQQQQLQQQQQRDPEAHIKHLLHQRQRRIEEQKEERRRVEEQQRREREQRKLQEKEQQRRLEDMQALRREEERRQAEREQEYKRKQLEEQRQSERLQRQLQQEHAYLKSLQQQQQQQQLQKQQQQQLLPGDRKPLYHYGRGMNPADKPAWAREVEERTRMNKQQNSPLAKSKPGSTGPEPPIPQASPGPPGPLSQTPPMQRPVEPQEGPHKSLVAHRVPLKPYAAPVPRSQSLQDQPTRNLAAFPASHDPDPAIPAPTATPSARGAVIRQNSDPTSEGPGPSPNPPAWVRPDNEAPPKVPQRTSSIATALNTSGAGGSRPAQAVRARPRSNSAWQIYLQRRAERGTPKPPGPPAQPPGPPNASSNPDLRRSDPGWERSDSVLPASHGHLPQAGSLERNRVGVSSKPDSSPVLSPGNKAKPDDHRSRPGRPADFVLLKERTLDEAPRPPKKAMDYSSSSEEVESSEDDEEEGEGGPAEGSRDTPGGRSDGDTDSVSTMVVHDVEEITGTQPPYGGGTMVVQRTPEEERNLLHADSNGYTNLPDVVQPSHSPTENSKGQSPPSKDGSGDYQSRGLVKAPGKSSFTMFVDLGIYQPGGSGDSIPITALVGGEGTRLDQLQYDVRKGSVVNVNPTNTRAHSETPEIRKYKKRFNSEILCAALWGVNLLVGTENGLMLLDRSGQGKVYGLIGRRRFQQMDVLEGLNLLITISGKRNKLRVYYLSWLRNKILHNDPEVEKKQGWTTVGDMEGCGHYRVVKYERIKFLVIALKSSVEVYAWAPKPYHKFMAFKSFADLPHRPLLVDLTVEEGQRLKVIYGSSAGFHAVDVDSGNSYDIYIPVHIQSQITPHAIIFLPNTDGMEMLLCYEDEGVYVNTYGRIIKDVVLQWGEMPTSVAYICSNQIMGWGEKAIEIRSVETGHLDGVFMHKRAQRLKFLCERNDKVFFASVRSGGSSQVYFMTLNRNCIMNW

[6] = molecular target: MAP kinase-activated protein kinase 2 (Homo sapiens) (UniProt P49137); assay: Inhibition of MAPKAP-K2 assessed as activity remaining at 10 uM
MAP kinase-activated protein kinase 2 (Homo sapiens), sequence (P49137 whole entry, looked up): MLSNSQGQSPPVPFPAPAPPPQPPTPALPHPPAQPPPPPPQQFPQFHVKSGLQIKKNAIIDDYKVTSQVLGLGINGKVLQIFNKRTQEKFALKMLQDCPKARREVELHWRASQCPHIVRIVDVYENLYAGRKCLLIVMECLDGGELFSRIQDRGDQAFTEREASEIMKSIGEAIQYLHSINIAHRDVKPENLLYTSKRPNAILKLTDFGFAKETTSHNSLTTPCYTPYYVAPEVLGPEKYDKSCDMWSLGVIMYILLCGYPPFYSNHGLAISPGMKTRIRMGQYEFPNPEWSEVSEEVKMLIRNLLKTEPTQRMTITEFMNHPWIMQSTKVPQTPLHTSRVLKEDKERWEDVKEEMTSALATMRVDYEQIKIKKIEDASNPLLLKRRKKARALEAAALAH

[7] = molecular target: T2, Inhibitor of nuclear factor kappa-B kinase subunit beta (Homo sapiens) (UniProt O14920); assay: Inhibition of IKK-beta assessed as activity remaining at 10 uM
T2 sequence (whole entry): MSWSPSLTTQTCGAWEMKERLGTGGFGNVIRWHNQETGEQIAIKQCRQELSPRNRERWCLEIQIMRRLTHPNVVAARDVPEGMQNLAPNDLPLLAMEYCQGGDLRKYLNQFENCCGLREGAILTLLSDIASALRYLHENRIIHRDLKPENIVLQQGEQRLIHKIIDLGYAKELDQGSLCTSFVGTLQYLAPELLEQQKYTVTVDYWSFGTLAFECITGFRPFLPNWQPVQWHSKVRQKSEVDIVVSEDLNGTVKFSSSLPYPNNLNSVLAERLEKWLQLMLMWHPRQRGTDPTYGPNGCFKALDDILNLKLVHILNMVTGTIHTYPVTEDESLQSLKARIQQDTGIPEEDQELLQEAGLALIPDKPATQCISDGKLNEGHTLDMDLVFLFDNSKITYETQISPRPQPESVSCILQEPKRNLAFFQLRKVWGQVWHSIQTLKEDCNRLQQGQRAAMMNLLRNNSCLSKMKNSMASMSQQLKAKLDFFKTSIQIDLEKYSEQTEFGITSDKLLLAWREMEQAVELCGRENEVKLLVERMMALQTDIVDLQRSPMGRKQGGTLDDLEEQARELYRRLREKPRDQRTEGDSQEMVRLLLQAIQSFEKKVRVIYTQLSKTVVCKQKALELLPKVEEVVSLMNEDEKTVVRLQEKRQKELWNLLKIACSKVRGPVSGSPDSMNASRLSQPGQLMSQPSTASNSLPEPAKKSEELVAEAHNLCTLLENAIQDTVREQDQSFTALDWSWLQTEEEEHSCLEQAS

[8] = molecular target: Receptor-type tyrosine-protein kinase FLT3 (Homo sapiens) (UniProt P36888); assay: Inhibition of Flt3 assessed as activity remaining at 10 uM
Receptor-type tyrosine-protein kinase FLT3 (Homo sapiens), sequence (P36888 whole entry, canonical isoform): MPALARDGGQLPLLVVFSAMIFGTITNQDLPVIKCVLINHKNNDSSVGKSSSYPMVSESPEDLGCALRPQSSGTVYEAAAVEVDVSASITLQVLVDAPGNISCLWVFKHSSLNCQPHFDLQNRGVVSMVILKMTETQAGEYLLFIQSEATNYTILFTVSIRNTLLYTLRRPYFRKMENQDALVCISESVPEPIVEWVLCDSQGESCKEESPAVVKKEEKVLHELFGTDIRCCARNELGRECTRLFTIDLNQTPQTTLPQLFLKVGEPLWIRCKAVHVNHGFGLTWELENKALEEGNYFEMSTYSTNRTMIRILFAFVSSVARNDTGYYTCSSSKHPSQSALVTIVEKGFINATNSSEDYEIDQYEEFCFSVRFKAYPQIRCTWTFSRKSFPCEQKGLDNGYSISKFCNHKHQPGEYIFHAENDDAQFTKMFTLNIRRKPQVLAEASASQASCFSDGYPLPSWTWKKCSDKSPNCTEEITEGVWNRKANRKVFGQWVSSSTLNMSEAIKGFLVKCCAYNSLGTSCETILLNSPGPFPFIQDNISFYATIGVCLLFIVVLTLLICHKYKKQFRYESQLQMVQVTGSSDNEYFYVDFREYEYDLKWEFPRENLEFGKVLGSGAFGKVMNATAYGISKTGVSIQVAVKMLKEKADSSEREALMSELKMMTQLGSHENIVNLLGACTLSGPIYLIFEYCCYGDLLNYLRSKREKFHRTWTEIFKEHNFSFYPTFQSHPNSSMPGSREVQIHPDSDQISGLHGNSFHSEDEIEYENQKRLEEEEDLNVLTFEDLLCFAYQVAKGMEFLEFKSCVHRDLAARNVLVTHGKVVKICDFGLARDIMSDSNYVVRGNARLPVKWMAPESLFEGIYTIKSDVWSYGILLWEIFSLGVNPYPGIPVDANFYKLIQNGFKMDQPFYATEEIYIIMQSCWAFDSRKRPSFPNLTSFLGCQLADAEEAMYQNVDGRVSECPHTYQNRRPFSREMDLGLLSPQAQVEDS

[9] = molecular target: Phosphatidylinositol 4,5-bisphosphate 3-kinase catalytic subunit alpha isoform (Homo sapiens, UniProt P42336); assay: Inhibition of PI3Kalpha
[10] = Inhibition of PKA assessed as activity remaining at 10 uM
[11] = molecular target: T3, Tyrosine-protein kinase JAK3 (Homo sapiens) (UniProt P52333); assay: Inhibition of JAK3 assessed as activity remaining at 10 uM
T3 sequence (whole entry): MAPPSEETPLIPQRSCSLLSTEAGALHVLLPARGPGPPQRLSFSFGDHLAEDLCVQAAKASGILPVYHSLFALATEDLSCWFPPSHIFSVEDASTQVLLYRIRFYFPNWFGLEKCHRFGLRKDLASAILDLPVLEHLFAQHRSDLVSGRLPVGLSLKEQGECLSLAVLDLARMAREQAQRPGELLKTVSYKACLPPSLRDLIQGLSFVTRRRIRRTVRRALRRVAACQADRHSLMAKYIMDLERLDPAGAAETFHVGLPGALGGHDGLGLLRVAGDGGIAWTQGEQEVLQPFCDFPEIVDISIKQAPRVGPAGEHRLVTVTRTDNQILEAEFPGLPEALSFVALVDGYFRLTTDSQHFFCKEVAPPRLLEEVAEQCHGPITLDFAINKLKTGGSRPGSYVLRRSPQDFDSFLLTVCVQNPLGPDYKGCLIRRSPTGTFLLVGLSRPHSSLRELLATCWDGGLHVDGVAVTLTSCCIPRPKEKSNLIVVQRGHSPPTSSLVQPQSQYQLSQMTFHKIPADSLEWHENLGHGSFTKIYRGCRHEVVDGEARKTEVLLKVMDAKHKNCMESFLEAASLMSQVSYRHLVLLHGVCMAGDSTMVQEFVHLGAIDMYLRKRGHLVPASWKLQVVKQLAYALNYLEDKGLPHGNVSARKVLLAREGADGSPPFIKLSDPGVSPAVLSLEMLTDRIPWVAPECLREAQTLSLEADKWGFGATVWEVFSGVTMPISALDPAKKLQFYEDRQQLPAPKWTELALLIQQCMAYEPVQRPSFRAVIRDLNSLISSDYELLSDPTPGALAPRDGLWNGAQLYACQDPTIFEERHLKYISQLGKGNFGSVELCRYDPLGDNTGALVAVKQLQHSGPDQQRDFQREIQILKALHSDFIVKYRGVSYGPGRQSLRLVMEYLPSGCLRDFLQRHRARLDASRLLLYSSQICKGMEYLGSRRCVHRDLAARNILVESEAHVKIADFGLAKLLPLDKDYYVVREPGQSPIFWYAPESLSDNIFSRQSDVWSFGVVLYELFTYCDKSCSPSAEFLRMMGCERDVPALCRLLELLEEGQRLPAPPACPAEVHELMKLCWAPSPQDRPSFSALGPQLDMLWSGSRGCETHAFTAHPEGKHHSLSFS

Mitogen-activated protein kinase 14 (Homo sapiens), sequence (Q16539 whole entry): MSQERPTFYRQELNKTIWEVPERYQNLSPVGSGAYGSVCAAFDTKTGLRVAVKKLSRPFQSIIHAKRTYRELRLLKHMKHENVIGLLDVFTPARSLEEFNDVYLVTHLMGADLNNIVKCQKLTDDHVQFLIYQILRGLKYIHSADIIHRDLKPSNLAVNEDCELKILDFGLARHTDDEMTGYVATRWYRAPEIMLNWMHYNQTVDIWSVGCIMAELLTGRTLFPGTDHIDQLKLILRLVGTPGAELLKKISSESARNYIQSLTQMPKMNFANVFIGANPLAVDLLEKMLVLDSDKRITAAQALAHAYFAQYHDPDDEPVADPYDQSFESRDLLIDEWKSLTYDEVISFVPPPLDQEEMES

| SMILES | Activity [1] [%] | Activity [2] [%] | Activity [3] [%] | Activity [4] [%] | Activity [5] [%] | Activity [6] [%] | Activity [7] [%] | Activity [8] [%] | IC50 [9] [µM] | Activity [10] [%] | Activity [11] [%] |
| --- | --- | --- | --- | --- | --- | --- | --- | --- | --- | --- | --- |
| O=c1[nH]c2ncc(-c3ccc(-c4nc[nH]n4)cc3)nc2n1CC1CCOCC1 | 92 | 97 | 39 | 95 | 92 | 93 | 98 | 55 | 2.6 | 95 | 96 |
| O=c1[nH]c2ncc(-c3ccc4[nH]cnc4c3)nc2n1CC1CCCCC1 | 75 | 112 | 3 | 96 | 42 | 89 | 82 | 46 | 20.1 | 90 | 95 |
| CC(C)(O)c1ccc(-c2cnc3[nH]c(=O)n(CC4CCCCC4)c3n2)cc1 | 92 | 87 | 16 | 91 | 83 | 99 | 91 | 71 | 21.9 | 95 | 101 |
